In article PMC9155639 (Journal of Antimicrobial Chemotherapy, 2022):

Key:
BpMip [1] = target: T1, BpMip (Burkholderia pseudomallei, UniProt Q63J95); experiment: biochemical
BpMip [2] = target: T1, BpMip; experiment: biochemical; type: binding, B. pseudomallei

T1 sequence (Q63J95 whole entry, added parts left off): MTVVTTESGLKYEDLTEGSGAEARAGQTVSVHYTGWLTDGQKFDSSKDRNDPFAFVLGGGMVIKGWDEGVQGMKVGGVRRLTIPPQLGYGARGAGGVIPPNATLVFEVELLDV

COc1cc(NC(=O)CCNC(=O)[C@@H]2CCCCN2S(=O)(=O)Cc2ccccc2)cc(OC)c1OC [SF339, (S)-1-(benzylsulfonyl)-N-(3-oxo-3-((3,4,5-trimethoxyphenyl)amino)propyl)piperidine-2-carboxamide]
IC50 (BpMip [1]): 0.26 µM | Ki (BpMip [1]; Ki (μM) Mean): 0.45 µM | Kd (BpMip [2]): 10.9 ± 0.2 µM | effect on B. pseudomallei-induced cytotoxicity (B. pseudomallei K96243): no statistically significant difference
